Read-outs that look alike come from different tables or passages of the source. Blank lines part the entries; values can stand above or below the compound they belong to.
Tests used:
[1] = known stabilizer, in words; cited from earlier work
mice [2] = conditions: known stabilizer, in words; cited from earlier work
[3] = Static thermostability of stabilized polyvinyl chloride resin, GARDNER Scale comparator, 185° C.; conditions: 185° C. and 210° C. trials, in words
Method: The stabilizing power of the substances of the invention was studied by determining the static thermostability of the following resin: […]
Polyvinyl chloride resin
Calcium-12-hydroxy-stearate
Stabilizer from 0.1 to 1
SL 2016 represents a solution of zinc-2-ethyl-hexanoate in a mixture of aromatic hydrocarbons boiling between 158° and 184° C.
The different ingredients were mixed and calendered in a mixer of which the cylinders were heated to 160° C.
The rigid sheets so obtained were then heated in a oven to a temperature of 185° or 210° C., until incipient carbonization.
A oven with a rotating drum, ventilated and equipped with a thermostat was used for this operation.
In the trials described hereunder the behaviour of the sheets containing one of the stabilizers to be tested was compared to that of sheets of the same formula but containing 2-phenyl-indole as stabilizer.
Comparison can be made by one of two methods, namely:
(1) The coloration of the sheets, of which samples were removed from the oven at fixed intervals, was compared to a standard scale of coloration, known as the GARDNER Scale, and expressed in terms of the reference figures of the GARDNER Scale.
Comparisons were made with a GARDNER Scale comparator which contains 18 filters of colored glass and which offers the possibility of observing simultaneously by transparency and in a limited field of view both the sheet and the reference filters.
It may happen that the color of the sheets is far removed from that of the GARDNER Scale, in which case comparison is difficult, if not impossible.
The following results were obtained at a temperature of 185° C., using the method described above: […]

[4] = water; for Extractibility compared with 2-phenyl-indole: in words
Method: This study was carried out in accordance with the requirements of the Food and Drug Administration (U.S.A.).
The extractions were performed in semi-rigid bottles, prepared with the resin of which the composition is given below, and with the following solvents: water, ethanol-water 50/50, an aqueous solution of acetic acid (3%) and finally heptane.
The ratio of the volume of solvent to the surface of plastic material exposed to extraction was about 1 to 100ml of solvent, taking into account the geometric characteristics of the bottles.
Heating A thermostated oven for the non-inflammable
solvents (water and acetic acid).
A thermostated water-bath for the inflammable
solvents (alcohol and heptane).
The quantity of stabilizer extracted was determined by colorimetric assay using p-dimethylaminobenzaldehyde, in accordance with the method described in Analytical Chemistry 36,425-26 (1964).
Results are expressed in μg of stabilizer extracted per litre of extraction solvent or, which is the same per 1000cm^2 of surface extracted.

[5] = Acute toxicity (LD50 / LDO), oral route, mice; format: in vivo; conditions: mouse, in vivo
Method: (§1) The toxicity of the stabilizers of the invention was studied first and the satisfactory results obtained were such as to justify continuation of the investigation.
(§2) The acute toxicity (LD50) of the stabilizers listed below was measured by determining the dose of substance which provoked the death of 50% of the animals treated.
(§3) A gummy suspension of the substance under study was administered by oral route to groups of at least ten mice and the following results were observed: […]

mice [6] = assay: Acute toxicity (LD50 / LDO), oral route, mice; format: in vivo
Method: as §1, §2, §3

Compound: c1ccc(-c2cc3ccccc3[nH]2)cc1 [2-phenyl-indole]
Stabilizing power [1]: good stabilizing power
Toxicity (mice [2]): low toxicity

Stabilizing power compared with 2-phenyl-indole [3]: superior to 2-phenyl-indole
Compound: COc1cc(-c2cc3cc(C)ccc3[nH]2)ccc1O [Stabilizer 15, 2(3'-methoxy-4'-hydroxy-phenyl)-5-methyl-indole]

Stabilizing power compared with 2-phenyl-indole [3]: superior to 2-phenyl-indole
Compound: COc1cc(-c2cc3ccc(C)cc3[nH]2)ccc1O [Stabilizer 13, 2(3'-methoxy-4'-hydroxy-phenyl)6-methyl-indole]

Stabilizing power compared with 2-phenyl-indole [3]: superior to 2-phenyl-indole
Compound: COc1ccc(-c2cc3cccc(C)c3[nH]2)cc1 [Stabilizer 5, 2-(4'-methoxy-phenyl)-7-methyl-indole]

Compound: CCCCCCCCCCCCOc1ccc(-c2cc3ccc(C)cc3[nH]2)cc1 [Stabilizer 12, 2-(4'-dodecyloxy-phenyl)-6-methyl-indole]
Extractibility compared with 2-phenyl-indole ([4]; aqueous ethanol and heptane): markedly less extractible than 2-phenyl-indole
Stabilizing power compared with 2-phenyl-indole [3]: superior to 2-phenyl-indole

Compound: COc1ccc(-c2cc3ccc(C)cc3[nH]2)cc1 [Stabilizer 6, 2-(4'-methoxy-phenyl)-6-methyl-indole]
LD50 [5]: > 3000 mg/kg
Toxic symptoms (mice [6]; LD50 table): none
Stabilizing power compared with 2-phenyl-indole [3]: superior to 2-phenyl-indole

Compound: Oc1ccc2[nH]c(-c3ccccc3)cc2c1 [Stabilizer 19]
LDO (maximal dose which does not provoke any death) (mice [6]): > 500 mg/kg
Toxic symptoms (mice [6]; LDO table): none

Stabilizing power compared with 2-phenyl-indole [3]: superior to 2-phenyl-indole
Compound: COc1cc(-c2cc3cccc(C)c3[nH]2)ccc1O [Stabilizer 8, 2-(3'-methoxy-4'-hydroxy-phenyl)-7-methyl-indole]

Extractibility, times less than 2-phenyl-indole [4]: at least 10 times
Extractibility compared with 2-phenyl-indole [4]: markedly superior to 2-phenyl-indole
Stabilizing power compared with 2-phenyl-indole [3]: superior to 2-phenyl-indole
Compound: Oc1ccc2cc(-c3ccccc3)[nH]c2c1 [Stabilizer 2, 2-phenyl-6-hydroxy-indole]

Compound: CCCCCCCCCCCCOc1ccc(-c2cc3cccc(C)c3[nH]2)cc1C [Stabilizer 14, 2-(3'-methyl-4'-dodecyloxy-phenyl)-7-methyl-indole]
Extractibility compared with 2-phenyl-indole ([4]; aqueous ethanol and heptane): markedly less extractible than 2-phenyl-indole

Stabilizing power compared with 2-phenyl-indole [3]: superior to 2-phenyl-indole
Compound: COc1ccc2cc(-c3ccccc3)[nH]c2c1 [Stabilizer 1, 2-phenyl-6-methoxy-indole]

Compound: CCCCCCCCCCCCOc1ccc(-c2cc3ccc(C)cc3[nH]2)cc1 [Stabilizer 12]
LD50 [5]: > 3000 mg/kg
Toxic symptoms (mice [6]; LD50 table): none

Compound: COc1ccc(-c2cc3cc(C)ccc3[nH]2)cc1 [Stabilizer 4, 2-(4'-methoxy-phenyl)-5-methyl-indole]
LDO (maximal dose which does not provoke any death) (mice [6]): > 500 mg/kg
Toxic symptoms (mice [6]; LDO table): none
Stabilizing power compared with 2-phenyl-indole [3]: superior to 2-phenyl-indole

Compound: Oc1ccc2[nH]c(-c3ccccc3)cc2c1 [Stabilizer 19, 2-phenyl-5-hydroxy-indole]
Stabilizing power compared with 2-phenyl-indole [3]: superior to 2-phenyl-indole

Compound: CCCCCCCCCCCCOc1ccc2[nH]c(-c3ccccc3)cc2c1 [Stabilizer 3, 2-phenyl-5-dodecyloxy-indole]
LD50 [5]: > 5000 mg/kg
Toxic symptoms (mice [6]; LD50 table): none
Extractibility compared with 2-phenyl-indole ([4]; aqueous ethanol and heptane): markedly less extractible than 2-phenyl-indole
Stabilizing power compared with 2-phenyl-indole [3]: superior to 2-phenyl-indole
